Results on seven molecules are retold here after publication PMC12992715, “Dual interference with host neuropeptide signaling allows parasitoid wasp to hijack host sugar metabolism” (The EMBO Journal, 2025).

One experiment relates to PxHK mRNA in the midgut. The experiment in a line: Ex vivo midgut incubation with sNPF and signalling inhibitors, PxHK mRNA. The class given is cell-based, Plutella xylostella. The note with it: midgut ex vivo, 20 µM sNPF + 10 µM U73122 (PLCβ inhibitor), 25 °C, 1 h; n = 5; words. The method, then:
(§1) The in vitro incubations of fat body or midgut were performed as previously described with minor modifications (Cheng et al, [2022]). The fat bodies and midguts from non-parasitised middle 4th instar P. xylostella larvae were collected in 0.5 mL of PBS. The collected tissues were then preincubated in culture dishes containing TNM-FH medium (HyClone) for 30 min. sNPF peptides or inhibitors were administered to isolated fat body and midgut in vitro using a modified method from a previous study (Oh et al, [2019]). 1 mM stock solution of pertussis toxin (PTX, Tocris Bioscience) or U73122 (MedChemExpress) was dissolved in DMSO (Sigma-Aldrich) and kept at −80 °C. 0.1 ng/µl PTX or 10 µM U73122 were then mixed with 20 µM sNPF-contained TNM-FH medium. Preincubated tissues were incubated in these mixtures at 25 °C for 1 h, followed by total RNA isolation and qPCR.

Experiment [1] relates to P. xylostella larvae. The experiment in a line: Circulating haemolymph trehalose after injection of synthetic sNPF peptides, venom, CvBV or teratocyte content. The experiment is classed as in vivo, Plutella xylostella. Conditions: for effect on haemolymph trehalose level: synthetic PxsNPFs, injected into 3M larvae, measured at 4M, high dosage 0.5 ng per larva, n = 4-6, words. The method, then:
(§2) Microinjections were performed under a Stemi 2000C microscope (Zeiss) using glass capillary injection needles and an Eppendorf Femtojet (Eppendorf) with a microcontroller (Narishige). To confirm the function of bovine insulin on hosts, 1 μg bovine insulin (Sigma-Aldrich, I0305000) was injected into the middle 3rd instar P. xylostella larvae. To identify the effect of each parasitic factor on hosts, 0.05 FE CvBV or 0.05 VRE venom was injected into the abdomen of the middle 3rd instar P. xylostella larva (Wang et al, [2018]; Yu et al, [2007]). 1 TE teratocytes’ content was microinjected into the early 4th instar P. xylostella larvae. To confirm the function of each synthetic sNPF peptide, 0.005 ng, 0.05 ng, or 0.5 ng of each peptide was injected into the middle 3rd instar P. xylostella larvae in a volume of 0.1 μl/per larva once per day for 3 consecutive days.
For P. xylostella larvae, 1 μl of haemolymph from the moth was diluted 60-fold in cold PBS and subjected to trehalose determination. The fat body of P. xylostella larvae was homogenised in 200 μl of cold PBS. Half of the homogenate was centrifuged at 13,000 rpm for 15 min, and the supernatant was used for protein content determination by Bradford Reagent (Invitrogen). The rest was heated at 70 °C for 5 min followed by centrifuging at 13,000 rpm for 15 min, and the supernatant was used for glycogen determination.
Trehalose content determination was performed by the anthrone sulfate method. 15 μL of the sample was incubated with 15 μL of 1% H2SO4 at 90 °C for 10 min, then 15 μL of 30% KOH was added and incubated at 90 °C for 10 min. Finally, 300 μl of 0.2% anthrone (Sigma-Aldrich) solution in 96% H2SO4 was added and incubated at 90 °C for 10 min. All reactions were stopped by immersion in ice. To create a trehalose standard curve, 15 μl of trehalose standards (Sigma-Aldrich) were treated similarly as a sample. Finally, 100 μl of each sample was added to a 96-well plate. The absorbance of samples was then measured at 630 nm on a SpectraMax® iD5 Multi-Mode Microplate Reader (Molecular Devices), and the trehalose levels were calculated based on the standard curve and normalised by protein content or sample volume.

Experiment [2] relates to PxGP, PxHK and PxTPS mRNA. In words: qPCR of PxGP, PxHK, PxTPS in larvae injected with synthetic sNPF, venom, CvBV or teratocytes. The class given is in vivo, Plutella xylostella.
From the text: (§3) To analyse gene expression in different tissues, P. xylostella larvae were dissected under the microscope, followed by the collection of the silk gland, fat body, midgut, haemocytes and central nervous system (CNS, brain and ventral nerve cord). Haemocytes were collected on clean Parafilm membranes with capillaries by bleeding the larvae from a cut proleg. To explore gene expression at different instars of parasitised or non-parasitised larvae, non-parasitised larva was isolated individually using RNA-easy Isolation Reagent (Vazyme). Parasitoid larvae were removed before parasitised hosts were isolated. As for the measurement of other experiments, per larva with different treatments was isolated individually using RNA-easy Isolation Reagent according to the manufacturer’s instructions.
(§4) The quality and concentrations of total RNAs were estimated by electrophoresis and NanoDrop 2000 spectrophotometer (Thermo Fisher Scientific). First-strand cDNAs were synthesised using the ReverTra Ace qPCR RT kit (Toyobo) according to the manufacturer’s instructions. Both β-actin (GenBank Acc. No.: AB282645) and β-tubulin (GenBank Acc. No.: EU127912) of P. xylostella were used as internal controls. Primer sequences used for qPCR analysis are shown in Appendix Table S4. qPCR was performed by using THUNDERBIRD® SYBR qPCR Mix (Toyobo) on the CFX Connect real-time system (Bio-Rad). All qPCR assays were performed using four internal replicates and at least three biological replicates under the following conditions: 95 °C for 60 s and 40 cycles of 95 °C for 15 s and 60 °C for 30 s. Relative gene expression levels were calculated using the 2^−ΔΔCt method.
as §2
A general note: In qPCR the cycle at which signal appears reflects the starting amount.

The test system of another experiment is PxsNPF mRNA. The experiment in a line: PxsNPF mRNA after injection of venom, CvBV or teratocytes. The class given is in vivo, Plutella xylostella.
From the text: as §3
The quality and concentrations of total RNAs were estimated by electrophoresis and NanoDrop 2000 spectrophotometer (Thermo Fisher Scientific). First-strand cDNAs were synthesised using the ReverTra Ace qPCR RT kit (Toyobo) according to the manufacturer’s instructions. Both β-actin (GenBank Acc. No.: AB282645) and β-tubulin (GenBank Acc. No.: EU127912) of P. xylostella were used as internal controls. […] Relative gene expression levels were calculated using the 2^−ΔΔCt method. […]

For experiment [3], the system named is P. xylostella larvae. The experiment in a line: Haemolymph trehalose after bovine insulin. The class given is in vivo, Plutella xylostella. Conditions: 1 μg bovine insulin, words. The method, then:
as §2
For P. xylostella larvae, 1 μl of haemolymph from the moth was diluted 60-fold in cold PBS and subjected to trehalose determination. The fat body of P. xylostella larvae was homogenised in 200 μl of cold PBS. […]
Trehalose content determination was performed by the anthrone sulfate method. […] The absorbance of samples was then measured at 630 nm on a SpectraMax® iD5 Multi-Mode Microplate Reader (Molecular Devices), and the trehalose levels were calculated based on the standard curve and normalised by protein content or sample volume.

The test system of experiment [4] is PxInR, PxGP, PxHK and PxTPS mRNA. In words: qPCR of PxInR, PxGP, PxHK, PxTPS after bovine insulin. The class given is in vivo, Plutella xylostella. Conditions: for PxInR relative expression, average: Figure 3D; for PxInR relative expression, average / PxGP relative expression, average: normalised to Pxβ-actin and Pxβ-tubulin; for PxGP relative expression, average / PxGP relative expression: Figure 3E.
From the text: as §3, §4, §2

Experiment [5] deals with Spodoptera exigua and Antheraea pernyi. The note with it: bovine insulin injection, words, ref PMID: 25703302, 34564224; cited from earlier work. The text has this:
page 9: short summary of the existing data, including for instance, which species this experiment has been conducted in and the data linking bovine insulin to activation of insect insulin-like pathways. […] Response: Thank you for pointing out the need to better justify the use of bovine insulin in our experimental design.

Experiment [6] has as its system PxGP mRNA in the fat body. In words: Ex vivo fat body incubation with sNPF and signalling inhibitors, PxGP mRNA. The class given is cell-based, Plutella xylostella. Conditions: 20 µM sNPF + PTX (0.4 µM in legend, 0.1 ng/µl in method), 25 °C, 1 h, n = 6, words. How it is done: as §1
Experiment [7] deals with Plutella xylostella sNPF receptor (PxsNPFR) (Plutella xylostella).

No end group written: not given here.

As to `COc1ccc2c(c1)CC[C@@H]1[C@@H]2CC[C@]2(C)[C@@H](NCCCCCCN3C(=O)C=CC3=O)CC[C@@H]12` [U73122, reference compound], the “effect on sPxsNPF-1-stimulated PxHK mRNA” value in the experiment with PxHK mRNA in the midgut is on record as “abolished the facilitatory effect of sPxsNPF-1 on PxHK”.
For Cotesia vestalis bracovirus [CvBV], the “increase of circulating trehalose” value in the experiment with P. xylostella larvae [1] (0.05 FE CvBV injected into 3M larvae, at 3L, n = 3-4) is 40%. The “PxGP relative expression, average” value came out at 0.87 in experiment [2] (Figure 4B, CvBV injection, qPCR, Pxβ-actin and Pxβ-tubulin reference, relative to PBS (normalizer 6.00), mean of 5 replicates, SD 0.29); 1.73 in [2] (Figure 4B, PxGP vs PBS, Pxβ-actin/Pxβ-tubulin reference, mean of 5 replicates). The “PxHK relative expression, Average” value in experiment [2] (Figure 4B, PxHK vs PBS, Pxβ-actin/Pxβ-tubulin reference, mean of 5 replicates) was 2.64. For the same molecule, the PxHK relative expression in experiment [2] (Figure 4B, PxHK vs PBS, Pxβ-actin/Pxβ-tubulin reference, replicate 1) is recorded as 2.97; in experiment [2] (Figure 4B, PxHK vs PBS, Pxβ-actin/Pxβ-tubulin reference, replicate 2), 2.49; in [2] (Figure 4B, PxHK vs PBS, Pxβ-actin/Pxβ-tubulin reference, replicate 3), 2.41; in experiment [2] (Figure 4B, PxHK vs PBS, Pxβ-actin/Pxβ-tubulin reference, replicate 4), 2.30; in experiment [2] (Figure 4B, PxHK vs PBS, Pxβ-actin/Pxβ-tubulin reference, replicate 5), 3.01. For the same molecule, in experiment [2] (non-parasitised larvae (whole body), CvBV, 3L, n = 5, words), the “transcript level of PxHK” value is given as “increases the transcript level of PxHK”. The PxsNPF expression result with PxsNPF mRNA (24 h after injection, n = 3-6, words) is “an increase in PxsNPF expression 24 h after CvBV injection”. The “PxsNPF relative expression, Average” value with PxsNPF mRNA (Figure 5K, 3M, average of replicates, vs PBS) is given as 1.99.
Consider “DTRQPVRLRF-NH2 [sPxsNPF-2, synthetic short neuropeptide F-2 of Plutella xylostella]”, for which the “effect on haemolymph trehalose level” value in the experiment with P. xylostella larvae [1] was “did not have this effect”.
Same read-out and setting: the same measure for “SVRAPSMRLRF-NH2 [sPxsNPF-3, synthetic short neuropeptide F-3 of Plutella xylostella]”: “did not have this effect”.
Consider bovine insulin, for which, in the experiment on P. xylostella larvae [3] (normal (non-parasitised) larvae), the blood trehalose level result is reported as “reduces the blood trehalose level”. Also, in the experiment on P. xylostella larvae [3] (parasitised host, 4M, n = 4-5), the haemolymph trehalose level result was “not reduced by bovine insulin in the parasitised host as in the non-parasitised group”. Also, in experiment [4] (1 μg bovine insulin, parasitised host, 4M, n = 4-5, words), the PxGP expression entry is “not reduced by bovine insulin in the parasitised host as in the non-parasitised group”. The PxInR expression entry in experiment [4] (1 μg bovine insulin, whole body, 4M, n = 4-5, non-parasitised and parasitised, words) was “upregulated in both non-parasitised and parasitised hosts”. The “PxInR relative expression, average” value in experiment [4] (NP, mean of 5 replicates) was determined as 3.425; in experiment [4] (P, mean of 4 replicates) it was 7.591. Also, the “PxGP relative expression, average” value in experiment [4] (NP, mean of 5 replicates) turned out to be 0.3318; in experiment [4] (P, mean of 4 replicates), 3.4733. For the same molecule, the PxGP relative expression in experiment [4] (NP, replicate 1) worked out at 0.3933; in experiment [4] (NP, replicate 2) it was 0.2777; in experiment [4] (NP, replicate 3) it was 0.2734; in experiment [4] (NP, replicate 4), 0.4168; in experiment [4] (NP, replicate 5), 0.298; in [4] (P, replicate 1) it was 3.51. Further, the PxGP relative expression in experiment [4] (P, replicate 2) amounted to 4.4126; in experiment [4] (P, replicate 3) it was 3.361; in experiment [4] (P, replicate 4), 2.609. In addition, in experiment [5], the hemolymph trehalose levels result was “significant reduction in hemolymph trehalose levels”.
For pertussis toxin [PTX], the “effect on sCvsNPF-stimulated PxGP mRNA” value in experiment [6] is on record as “decreased the sCvsNPF activation of PxGP”.
In experiment [7], SQRSPSLRLRF-NH2 [synthetic CvsNPF (Cotesia vestalis short neuropeptide F)] showed an inhibition of forskolin-stimulated cAMP accumulation in PxsNPFR-expressing HEK293 cells (10 μM forskolin, various peptide concentrations, 15 min; cAMP-Glo), EC50 of 0.402 µM.
